One data set deals with RARγ (Homo sapiens, UniProt P13631). The following applies: [50]; cited from earlier work.
Another data set concerns RXRs. To be noted: cited from earlier work.
The subject of data set [1] is RA response element (RARE). Nature of the data set: RARE luciferase reporter gene assay in Neuro2a cells. The format is cell-based, mouse. The following applies: Am80 0.2-5 μM, with or without HX630 5 μM, 24 h. The method, then: Since the effective concentration of Am80 in vivo has not been determined, we considered that a relatively high concentration of Am80 should be used in the in vitro study in order to ensure adequate stimulation. […] Moreover, the combination of HX630 (5 μM) with Am80 in the range of 0.2-5 μM also had little effect. Therefore, the concentrations of Am80 and HX630 were both set at 5 μM for the in vitro study.
Neuro2a cells were seeded in 24-well plates (2×10^5 cells/well) and transfected with 0.2 μg of pGL3-RARE-Luc (#13468; Addgene) or pGL3-Luc vector (Promega) and 0.05 μg of Renilla luciferase vector (phRL-TK) (Promega), using Effectene reagent (Qiagen) according to the manufacturer's protocol. Five hours after transfection, cells were exposed to Am80 (5 μM) and/or HX630 (5 μM) in the medium for 24 h. Luciferase activities were determined in cell lysates. Firefly luciferase activity was normalized to that of Renilla luciferase for each well.

The conditions of data set [2]: normal male rats; 2 h after subcutaneous administration at 1 mg/kg; cited from earlier work.
The subject of the next data set is Cd36 mRNA. The data set is described as follows: RT-PCR of Cd36 mRNA in brains of APP23 mice. It is filed as in vivo, mouse. The following applies: Am80 0.5 and/or HX630 5 mg/kg/d, day 18. How it is done:
APP23 mice begin forming amyloid deposits when they are 6 months old, but memory deficits in the MWM test appear quite early (before 3 months of age). Here, we used 8.5-month-old male APP23 mice and their WT littermates (C57BL/6J). We used stratified random sampling to divide mice (four to six per cage) into four groups to equalize the mean body weight of the study groups: mice given 0.5 mg/kg/d Am80, those given 5 mg/kg/d HX630, those given the mixture of 0.5 mg/kg/d Am80 and 5 mg/kg/d HX630, and those given the vehicle. Am80 and HX630 were suspended in 0.5% (w/v) carboxymethylcellulose solution and were orally administered to mice at 0.5 mg/kg (Am80) or 5 mg/kg (HX630) for 17 consecutive days (once daily at 18:00). Control animals received the same volume of 0.5% (w/v) carboxymethylcellulose solution orally, without the other compounds. […]
For semi-quantitative RT-PCR analysis, PCRs were carried out with Quick Taq HS DyeMix (DTM-101; Toyobo Co. Ltd., Osaka, Japan). […] Semi-quantitative PCR consisted of an initial denaturation cycle at 94° C. for 2 min, followed by 40 cycles for Cd36, 35 cycles for Mme, 30 cycles for Ide, and 26 cycles for β-actin. […] Densitometric quantification was done with the Image Gauge software program (Fuji Photo Film Co., Tokyo, Japan). […]

Sequence of RARγ (P13631 whole entry, species assumed): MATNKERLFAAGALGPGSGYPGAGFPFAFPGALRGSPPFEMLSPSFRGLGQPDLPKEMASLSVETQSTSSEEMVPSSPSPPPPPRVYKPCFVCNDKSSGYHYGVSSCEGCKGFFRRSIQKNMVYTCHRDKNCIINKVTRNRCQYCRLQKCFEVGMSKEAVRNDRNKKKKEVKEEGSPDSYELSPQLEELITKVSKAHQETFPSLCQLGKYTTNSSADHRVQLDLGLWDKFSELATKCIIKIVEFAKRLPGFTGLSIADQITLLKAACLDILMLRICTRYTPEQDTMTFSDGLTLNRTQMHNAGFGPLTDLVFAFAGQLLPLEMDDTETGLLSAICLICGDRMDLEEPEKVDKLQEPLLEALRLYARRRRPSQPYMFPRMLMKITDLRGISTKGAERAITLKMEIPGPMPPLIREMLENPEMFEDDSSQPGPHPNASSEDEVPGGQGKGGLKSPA

As for `CC1(C)CCC(C)(C)c2cc(NC(=O)c3ccc(C(=O)O)cc3)ccc21` [Am80, 4-{(5,6,7,8-tetrahydro-5,5,8,8-tetramethyl-2-naphthalenyl)carbamoyl}benzoic acid], at RARγ, the “binding to RARγ” value was “hardly binds”. Besides, the “binding affinity for RXRs (and RARγ)” value in the data set on RXRs is on record as “little or no binding affinity”. The “RARE-luciferase activity in Neuro2a cells” value in data set [1] is given as “hardly altered”. Besides, the “cerebral tissue content of Am80” value in data set [2] is recorded as “around 100 pmol/g tissue”.

Regarding `CN1c2ccccc2N=C(c2ccc(C(=O)O)cc2)c2cc3c(cc21)C(C)(C)CCC3(C)C` [HX630, 4-[5H-2,3-(2,5dimethyl-2,5-hexano)-5-methyldibenzo[b,e]-diazepin-11-yl]benzoic acid], in the data set on Cd36 mRNA, the “Cd36 mRNA level” value is “increased”.
